Test results published in patent publication US7199151B2 (priority 1996, dated 2007).

What was measured:
Assay type in all cases: cell-based
CNSSF 268 = assay: cells; conditions: concentration at which PG is +50, 48 hours exposure, SRB
Experimental: (§1) Conjugates 1 and 2 were sent to the United States National Cancer Institute (NCI) for screening in the NCI's anticancer screening program. The conjugates were provided in ethanol (approximately 40 mg analog/2 ml ethanol). […] Instructions were provided to store at 4° C. and to open the vials only when ready for immediate experimental use. Instructions also were provided to use the ethanol solutions containing the conjugates directly or to dissolve the analogs further in DMSO (dimethylsulfoxide) at appropriate concentrations, with vortexing if necessary for adequate dispersal.
(§2) The activities of conjugates 1 and 2 were tested against 57 cancer cell lines. […] To understand the data, reference is made to the guides provided by the NCI, excerpted as follows:
(§3) The Calculated Measurement of Effect: Percentage Growth (PG)
(§4) The measured effect of the compound on a cell line is currently calculated according to one or the other of the following two expressions: If (Mean ODtest−Mean ODtzero)≧0, then PG=100×(Mean ODtest−Mean ODtzero)/(Mean ODctrl−Mean Odtzero) If (Mean ODtest−Mean ODtzero)<0, then PG=100×(Mean ODtest−Mean Odtzero)/Mean Odtzero Where: • Mean ODtzero=The average of optical density measurements of SRB-derived color just before exposure of cells to the test compound. • Mean ODtest=The average of optical density measurements of SRB-derived color after 48 hours exposure of cells to the test compound. • Mean ODctrl=The average of optical density measurements of SRB-derived color after 48 hours with no exposure of cells to the test compound. • Experimental data was collected against each cell line . . . Each concentration is expressed as the log10 (molar or μg/ml) . . . The response parameters GI50, TGI, and LC50 are interpolated values representing the concentrations at which the PG is +50, 0, and −50, respectively. Sometimes these response parameters cannot be obtained by interpolation. If, for instance, all of the PGs in a given row exceed +50, then none of the three parameters can be obtained by interpolation. […]

CNS SF-539 = assay: cells; conditions: 48 hours exposure, SRB
Experimental: as §1, §2, §3, §4

[1] = tested on: non-small cell lung cancer lines H522 and H460
Experimental: as §1, §2, §3
(§5) The measured effect of the compound on a cell line is currently calculated according to one or the other of the following two expressions: If (Mean ODtest−Mean ODtzero)≧0, then PG=100×(Mean ODtest−Mean ODtzero)/(Mean ODctrl−Mean Odtzero) If (Mean ODtest−Mean ODtzero)<0, then PG=100×(Mean ODtest−Mean Odtzero)/Mean Odtzero Where: • Mean ODtzero=The average of optical density measurements of SRB-derived color just before exposure of cells to the test compound. • Mean ODtest=The average of optical density measurements of SRB-derived color after 48 hours exposure of cells to the test compound. • Mean ODctrl=The average of optical density measurements of SRB-derived color after 48 hours with no exposure of cells to the test compound. • Experimental data was collected against each cell line . . . Each concentration is expressed as the log10 (molar or μg/ml) . . . The response parameters GI50, TGI, and LC50 are interpolated values representing the concentrations at which the PG is +50, 0, and −50, respectively. Sometimes these response parameters cannot be obtained by interpolation. If, for instance, all of the PGs in a given row exceed +50, then none of the three parameters can be obtained by interpolation. In such a case, the value given for each response parameter is the highest concentration tested . . . This practice is extended similarly to the other possible situations where a response parameter cannot be obtained by interpolation.
(§6) Dose-Response Curves: • The dose-response curve page of the data package is created by plotting the PGs against the log10 of the corresponding concentration for every cell line. The cell line curves are grouped by subpanel. Horizontal lines are provided at the PG values of +50, 0, and −50. The concentrations corresponding to points where the curves cross these lines are the GI50, TGI and LC50, respectively.

57 cancer cell lines = conditions: average over all cell lines; −10 used where Taxol was active at −10.0 (27 instances)
Experimental: as §1, §2, §3, §5, §6

[2] = tested on: MDA-N and MDA-MB-435 breast cancer cell lines; conditions: at all concentrations tested
Experimental: as §1, §2, §3, §5, §6

CNSU251 = tested on: CNSU251
Experimental: as §1, §2, §3, §5, §6

[3] = tested on: leukemia cancer cell lines; conditions: six leukemia lines for the conjugates, four for Taxol; FIGS. 1, 10 and 19
Experimental: as §1, §2, §3, §5, §6

Which results are given for `CC(=O)O[C@H]1C(=O)[C@@]2(C)[C@H]([C@H](OC(=O)c3ccccc3)[C@]3(O)C[C@H](OC(=O)[C@H](O)[C@@H](NC(=O)c4ccccc4)c4ccccc4)C(C)=C1C3(C)C)[C@]1(OC(C)=O)CO[C@@H]1C[C@@H]2O` [Taxol, paclitaxel]?
GI50 (CNSSF 268): < 0.0001 µM; GI50 (CNS SF-539; CNSSF-539, concentration at which PG is +50, CNS SF 539): 0.0302 µM; TGI (CNS SF-539; concentration at which PG is 0, CNS SF-539): −6.95 log10 (molar or μg/ml); difference in effectiveness at TGI, H522 versus H460 [1]: about 3 logs; relative effectiveness at TGI, H522 versus H460 [1]: more effective against non-small cell lung cancer line H522 than against H460; average GI50 across all cell lines tested (57 cancer cell lines): −9.19 log10 (molar or μg/ml); relative activity toward MDA-N versus MDA-MB-435 [2]: equivalent in activity; effectiveness at TGI against CNSU251 relative to other CNS cell lines (CNSU251): least effective; effectiveness against leukemia cancer cell lines [3]: somewhat effective
